PMC11111408, “Concurrent inhibition of oncogenic and wild-type RAS-GTP for cancer therapy” (Nature, 2024)

System: PRISM DNA-barcoded human tumour cell lines
Assay: PRISM pooled cell viability assay;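 on PRISM AUC: 8 threefold dilutions from 10 µM with 5 days of exposure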
Type: cell-based
Set-up: AUC (PRISM viability) / AUC (PRISM): unit not given beside the values
Conditions: for AUC (PRISM viability): WT; for PRISM AUC: KRAS MUT
Experimental: Cells were then lysed in TCL mRNA lysis buffer, and then PCR with reverse transcription was performed. Detection of the barcodes and univariate and multivariate analysis was then performed as previously described. Data analysis is described in the Supplementary Methods. Up-to-date code for our analysis is at the github link: https://github.com/cmap/dockerized_mts.
For every gene with non-silent mutations in at least four cell-lines, we compared the AUC values between cells with and without those mutations using a t-test. This analysis was carried out for: (i) the full dataset; (ii) excluding cell lines with non-silent KRAS mutations; and (iii) excluding cell lines that have either KRAS or NRAS non-silent mutations.

SMILES: CCn1c(-c2cc(N3CCN(C4CC4)CC3)cnc2[C@H](C)OC)c2c3cc(ccc31)-c1csc(n1)C[C@H](NC(=O)[C@H]1[C@@H]3COC[C@@H]31)C(=O)N1CCC[C@H](N1)C(=O)OCC(C)(C)C2 [RMC-7977]
- AUC (PRISM viability) (SCC25_UPPER_AERODIGESTIVE_TRACT): 0.3367
- AUC (PRISM viability) (SCLC21H_LUNG): 0.9496
- AUC (PRISM viability) (SEM_HAEMATOPOIETIC_AND_LYMPHOID_TISSUE): 0.8793
- AUC (PRISM viability) (SF126_CENTRAL_NERVOUS_SYSTEM): 0.7112
- AUC (PRISM viability) (SF295_CENTRAL_NERVOUS_SYSTEM): 0.7908
- AUC (PRISM viability) (SF539_CENTRAL_NERVOUS_SYSTEM): 0.7182
- AUC (PRISM viability) (SH4_SKIN): 0.8584
- PRISM AUC (SH10TC_STOMACH): 0.4138
- PRISM AUC (SHP77_LUNG): 0.4654
- AUC (PRISM viability) (SIMA_AUTONOMIC_GANGLIA): 0.5854
- AUC (PRISM viability) (SKES1_BONE): 0.8807
- AUC (PRISM viability) (SKHEP1_LIVER): 0.7844
- AUC (PRISM viability) (SKLMS1_SOFT_TISSUE): 0.3954
- PRISM AUC (SKLU1_LUNG): 0.1796
- AUC (PRISM viability) (SKMEL3_SKIN): 1
- AUC (PRISM viability) (SKMEL5_SKIN): 0.8492
- AUC (PRISM viability) (SKMEL24_SKIN): 0.8551
- AUC (PRISM viability) (SKMEL28_SKIN): 0.8799
- AUC (PRISM viability) (SKMEL30_SKIN): 0.2141
- AUC (PRISM viability) (SKMES1_LUNG): 0.4907
- AUC (PRISM viability) (SKNAS_AUTONOMIC_GANGLIA): 0.2639
- AUC (PRISM viability) (SKNBE2_AUTONOMIC_GANGLIA): 0.4969
- AUC (PRISM viability) (SKNDZ_AUTONOMIC_GANGLIA): 0.7338
- AUC (PRISM viability) (SKNMC_BONE): 0.8913
- AUC (PRISM viability) (SKNO1_HAEMATOPOIETIC_AND_LYMPHOID_TISSUE): 0.4958
- AUC (PRISM viability) (SKOV3_OVARY): 0.8555
- AUC (PRISM viability) (SKUT1_SOFT_TISSUE): 0.8493
- AUC (PRISM viability) (SNB75_CENTRAL_NERVOUS_SYSTEM): 0.7551
- PRISM AUC (SNGM_ENDOMETRIUM): 0.5073
- PRISM AUC (SNU1_STOMACH): 0.47
- AUC (PRISM viability) (SNU46_UPPER_AERODIGESTIVE_TRACT): 0.6229
- PRISM AUC (SNU61_LARGE_INTESTINE): 0.1577
- AUC (PRISM viability) (SNU182_LIVER): 1
- AUC (PRISM viability) (SNU201_CENTRAL_NERVOUS_SYSTEM): 0.8111
- PRISM AUC (SNU213_PANCREAS): 0.2216
- AUC (PRISM viability) (SNU216_STOMACH): 0.4345
- AUC (PRISM viability) (SNU245_BILIARY_TRACT): 0.5897
- AUC (PRISM viability) (SNU308_BILIARY_TRACT): 0.4973
- AUC (PRISM viability) (SNU398_LIVER): 0.9232
- PRISM AUC (SNU407_LARGE_INTESTINE): 0.42
- PRISM AUC (SNU410_PANCREAS): 0.5771
- AUC (PRISM viability) (SNU423_LIVER): 0.6851
- AUC (PRISM viability) (SNU449_LIVER): 0.7416
- AUC (PRISM viability) (SNU466_CENTRAL_NERVOUS_SYSTEM): 0.3575
- AUC (PRISM viability) (SNU489_CENTRAL_NERVOUS_SYSTEM): 0.8437
- PRISM AUC (SNU601_STOMACH): 0.2276
- AUC (PRISM viability) (SNU685_ENDOMETRIUM): 0.8482
- AUC (PRISM viability) (SNU719_STOMACH): 0.2772
- AUC (PRISM viability) (SNU761_LIVER): 0.9921
- AUC (PRISM viability) (SNU840_OVARY): 0.3829
- PRISM AUC (SNU869_BILIARY_TRACT): 0.3809
- AUC (PRISM viability) (SNU878_LIVER): 0.7757
- AUC (PRISM viability) (SNU886_LIVER): 0.4222
- AUC (PRISM viability) (SNU899_UPPER_AERODIGESTIVE_TRACT): 0.2281
- AUC (PRISM viability) (SNU1076_UPPER_AERODIGESTIVE_TRACT): 0.2341
- AUC (PRISM viability) (SNU1077_ENDOMETRIUM): 0.9228
- AUC (PRISM viability) (SNU1079_BILIARY_TRACT): 0.7613
- AUC (PRISM viability) (SNU1105_CENTRAL_NERVOUS_SYSTEM): 0.4704
- AUC (PRISM viability) (SNU1196_BILIARY_TRACT): 0.9637
- AUC (PRISM viability) (SNU1214_UPPER_AERODIGESTIVE_TRACT): 0.179
- PRISM AUC (SNUC2A_LARGE_INTESTINE): 0.7905
- AUC (PRISM viability) (SNUC4_LARGE_INTESTINE): 0.612
- AUC (PRISM viability) (SQ1_LUNG): 0.3633
- AUC (PRISM viability) (SR786_HAEMATOPOIETIC_AND_LYMPHOID_TISSUE): 0.6127
- PRISM AUC (SUIT2_PANCREAS): 0.4229
- PRISM AUC (SW480_LARGE_INTESTINE): 0.2548
- AUC (PRISM viability) (SW579_THYROID): 0.4828
